The test system of test [1] is Zea mays. In words: Effect on GSH content in Zea mays (maize) shoot at 50 uM applied to seeds incubated for 5 days by DNTB-based spectrophotometric analysis relative to control. Format: functional, organism-based.
Test [2] has as its system Zea mays. In words: Decrease in GSH content in Zea mays (maize) root at 50 uM applied to seeds incubated for 5 days by DNTB-based spectrophotometric analysis relative to control. Format: functional, organism-based.
In test [3] the test system is Zea mays. In words: Safening activity against acetochlor-induced phytotoxicity against Zea mays (maize) assessed as increase in shoot length at 50 uM applied pre-emergence measured 14 days after treatment relative to acetochlor-treated control. It counts as functional.
Test [4] concerns Zea mays. In words: Increase in GST activity in Zea mays (maize) shoot at 50 uM applied to seeds incubated for 5 days by [14C]acetochlor-based liquid scintillation assay relative to control. It counts as functional.
Test [5] concerns Zea mays. In words: Increase in GST activity in Zea mays (maize) shoot at 50 uM applied to seeds incubated for 5 days by CDNB-based spectrophotometric analysis relative to control. It counts as functional, organism-based.
Test [6] concerns Zea mays. In words: Increase in GSH content in Zea mays (maize) root at 50 uM applied to seeds incubated for 5 days by DNTB-based spectrophotometric analysis relative to control. Format: functional.
Test [7] has as its system Zea mays. In words: Increase in GSH content in Zea mays (maize) shoot at 50 uM applied to seeds incubated for 5 days by DNTB-based spectrophotometric analysis relative to control. Format: functional.
Test [8] deals with Zea mays. In words: Decrease in GST activity in Zea mays (maize) root at 50 uM applied to seeds incubated for 5 days by CDNB-based spectrophotometric analysis relative to control. Format: functional, organism-based.
Test [9] relates to Zea mays. In words: Effect on GST activity in Zea mays (maize) shoot at 50 uM applied to seeds incubated for 5 days by CDNB-based spectrophotometric analysis relative to control. Format: functional, organism-based.
The test system of test [10] is Zea mays. In words: Increase in GST activity in Zea mays (maize) root at 50 uM applied to seeds incubated for 5 days by [14C]acetochlor-based liquid scintillation assay relative to control. Format: functional.
Test [11] relates to Zea mays. In words: Effect on GST activity in Zea mays (maize) root at 50 uM applied to seeds incubated for 5 days by [14C]acetochlor-based liquid scintillation assay relative to control. Format: functional, organism-based.
In test [12] the test system is Zea mays. In words: Increase in GST activity in Zea mays (maize) root at 50 uM applied to seeds incubated for 5 days by CDNB-based spectrophotometric analysis relative to control. It counts as functional.

Calls of active or inactive are those of the source. The rule behind the calls is not given here.

`ClC(Cl)C1OCCCO1`: the outcome in the test on Zea mays [1] was inactive. The result in the test on Zea mays [2] was Active. In addition, the Activity in the test on Zea mays [3] stood at 24%.
Turning to `CC(C)COC(C)(OCC(C)C)C(Cl)Cl`, the result in the test on Zea mays [1] was inactive. In the test on Zea mays [4], the “fold change (FC)” value is reported as 4.72.
Take `ClC(Cl)C1(c2ccccc2)OCCO1`: the outcome in the test with Zea mays [1] was inactive. In addition, the outcome in the test on Zea mays [3] and in the test on Zea mays [5] was Active. Also, the “fold change (FC)” value with Zea mays [6] and in the test with Zea mays [7] was greater than 2 in each case.
As to `CCCOC(OCCC)C(Cl)Cl`, the outcome in the test with Zea mays [1] was inactive. In addition, the Activity with Zea mays [3] was 24%.
Consider `CCOC(C)(OCC)C(Cl)Cl`, for which the outcome with Zea mays [1], with Zea mays [6] and with Zea mays [7] was inactive. The Activity in the test on Zea mays [3] is reported as 62%.
As to `CCOC(OCC)C(Cl)Cl`, the result with Zea mays [1] was inactive. Also, the Activity in the test on Zea mays [3] worked out at 24%. The outcome with Zea mays [5] and in the test with Zea mays [8] was Active.
For `CCCCOC(OCCCC)C(Cl)Cl`, the outcome in the test on Zea mays [1] was inactive. In addition, the Activity in the test with Zea mays [3] was 24%.
On to `C=CCNC(=O)CCl` [N-ALLYL-2-CHLOROACETAMIDE], for which, in the test on Zea mays [3], the Activity is given as 48%. Also, the “fold change (FC)” value with Zea mays [6] and with Zea mays [7] was 2.25 each time. For the same compound, the outcome in the test on Zea mays [9] was inactive.
Consider `CCCOC(C)(OCCC)C(Cl)Cl`, for which the result in the test with Zea mays [1], in the test with Zea mays [6] and in the test on Zea mays [7] was inactive. Further, in the test on Zea mays [3], the Activity amounted to 63%.
On to `CCOCN(C(=O)CCl)c1c(C)cccc1CC`, for which the outcome with Zea mays [4] and in the test on Zea mays [10] was Active.
In the case of `CCCCOC(C)(OCCCC)C(Cl)Cl`, in the test on Zea mays [1], the outcome was inactive.
`C=CCN(CC=C)C(=O)CCl`: the result in the test on Zea mays [4] and in the test on Zea mays [10] was Active. Further, the outcome with Zea mays [9] was inactive.
Regarding `CC1(C(Cl)Cl)OCCCCO1`, the outcome in the test on Zea mays [1] and with Zea mays [11] was inactive. Further, the Activity in the test on Zea mays [3] is reported as 70%. Also, the result in the test on Zea mays [5] and in the test with Zea mays [7] was Active.
On to `CC1(C)COC(C(Cl)Cl)OC1`, for which the result in the test with Zea mays [1] was inactive. For the same compound, the result with Zea mays [2] was Active. The Activity with Zea mays [3] came out at 24%.
`C=CCN(CC=C)C(=O)C(Cl)Cl` [DICHLORMID]: the Activity with Zea mays [3] came to 81%. Moreover, the results for the “fold change (FC)” value in the test on Zea mays [6] and in the test with Zea mays [7] were 1.65 and 1.78, respectively. The result in the test with Zea mays [9] was inactive.
With `ClC(Cl)C1OCCO1`, the outcome with Zea mays [1] was inactive. Also, the outcome in the test with Zea mays [2] was Active. In addition, in the test on Zea mays [3], the Activity is 24%.
In the case of `CCOC(CCl)OCC` [MONOCHLOROACETAL], the Activity in the test on Zea mays [3] is recorded as 24%. In addition, the outcome with Zea mays [7] and in the test with Zea mays [8] was Active.
As to `CC1(C(Cl)Cl)OCCO1`, the outcome in the test with Zea mays [1] was inactive. Further, the Activity in the test with Zea mays [3] was found to be 64%. The entries for the “fold change (FC)” value in the test with Zea mays [4] and with Zea mays [10] were 3.93 and 3.64, respectively. The result in the test on Zea mays [5] and in the test on Zea mays [7] was Active.
For `CC1(C)COC(C)(C(Cl)Cl)OC1`, the result with Zea mays [1] was inactive. Moreover, the outcome in the test with Zea mays [3], in the test with Zea mays [5] and with Zea mays [7] was Active.
For the compound `CC1(C(Cl)Cl)OCCCCCO1`, in the test with Zea mays [1], the result was inactive. Also, the outcome in the test with Zea mays [3], in the test on Zea mays [5] and in the test on Zea mays [7] was Active.
With `CC(C)COC(OCC(C)C)C(Cl)Cl`, the result in the test on Zea mays [1] was inactive. Moreover, the Activity with Zea mays [3] stood at 24%.
In the case of `ClC(Cl)C1OCCCCCO1`, in the test with Zea mays [1], the outcome was inactive. Also, the outcome with Zea mays [2] was Active. The Activity in the test with Zea mays [3] was 24%. In addition, the “fold change (FC)” value in the test on Zea mays [12] turned out to be 2.
Turning to `CCOC(CBr)OCC` [BROMOACETAL], the Activity in the test on Zea mays [3] came out at 60%. Moreover, the “fold change (FC)” value in the test on Zea mays [4] came to 3.76. The outcome in the test with Zea mays [7] and in the test on Zea mays [8] was Active.
In the case of `ClC(Cl)C1OCCCCCCO1`, the outcome in the test with Zea mays [1] was inactive. Besides, in the test on Zea mays [3], the Activity was 24%. The “fold change (FC)” value with Zea mays [12] was 4.
Regarding `ClC(Cl)C1OCCCCO1`, in the test with Zea mays [1], the outcome was inactive. The result in the test with Zea mays [2] was Active. Also, the Activity in the test on Zea mays [3] was determined as 24%.
Consider `CC1(C(Cl)Cl)OCCCCCCO1`, for which the result in the test with Zea mays [1] was inactive. The result in the test on Zea mays [3], in the test on Zea mays [5] and with Zea mays [7] was Active.
As to `CC1(C(Cl)Cl)OCCCO1`, the outcome in the test on Zea mays [1] was inactive. Moreover, in the test with Zea mays [3], the Activity is 68%. Also, the result in the test on Zea mays [5] and in the test on Zea mays [7] was Active.
For the compound `C=CCN(CC=C)C(=O)CBr`, the result with Zea mays [4] and with Zea mays [10] was Active. For the same compound, the result in the test on Zea mays [9] was inactive.

The values above are taken from ChEMBL document CHEMBL3044703, “Safening efficacy of halogenated acetals, ketals and amides and relationship between the structure and effect on glutathione and glutathione S-transferases in maize” (2007).
